Laboratory results as given in US8063096B2, “Spirocyclic 3-phenyl-3substituted-4-ketolactams and-lactones” (Bayer Cropscience AG, priority 2001, dated 2011).

Experiments:
Assay type in all cases: in vivo
Alopecurus [1] = experiment: Pre-emergence test, Alopecurus; settings: pre-emergence/greenhouse; 250 g of ai/ha; after three weeks
Experimental: (§1) [table] To produce a suitable preparation of active compound, 1 part by weight of active compound is mixed with the stated amount of solvent, the stated amount of emulsifier is added and the concentrate is diluted with water to the desired concentration. Seeds of the test plants are sown in normal soil. After about 24 hours, the soil is sprayed with the preparation of active compound such that the particular amounts of active compound desired are applied per unit area. The concentration of the spray liquor is chosen such that the particular amounts of active compound desired are applied in 1000 l of water/ha. After three weeks, the degree of damage to the plants is rated in % damage in comparison to the development of the untreated control. The figures denote: • 0%=no effect (like untreated control) • 100%=total destruction

Avena fatua [2] = experiment: Pre-emergence test, Avena fatua; settings: pre-emergence/greenhouse; 250 g of ai/ha; after three weeks
Experimental: as §1

Alopecurus [3] = experiment: Post-emergence test, Alopecurus; settings: post-emergence/greenhouse; 250 g of ai/ha; after three weeks
Experimental: as §1, with “Test plants” for “Seeds”, “a height of 5-15 cm” for “the test plants”, “are” for “are sown in normal soil. After about 24 hours, the soil is”, “(=like” for “(like”

Setaria [4] = experiment: Pre-emergence test, Setaria; settings: pre-emergence/greenhouse; 250 g of ai/ha; after three weeks
Experimental: as §1

Sinapis [5] = experiment: Pre-emergence test, Sinapis; settings: pre-emergence/greenhouse; 250 g of ai/ha; after three weeks
Experimental: as §1

Amaranthus [6] = experiment: Post-emergence test, Amaranthus; settings: post-emergence/greenhouse; 250 g of ai/ha; after three weeks
Experimental: as §1, with “Test plants” for “Seeds”, “a height of 5-15 cm” for “the test plants”, “are” for “are sown in normal soil. After about 24 hours, the soil is”, “(=like” for “(like”

Avena fatua [7] = experiment: Post-emergence test, Avena fatua; settings: post-emergence/greenhouse; 250 g of ai/ha; after three weeks
Experimental: as §1, with “Test plants” for “Seeds”, “a height of 5-15 cm” for “the test plants”, “are” for “are sown in normal soil. After about 24 hours, the soil is”, “(=like” for “(like”

Sinapis [8] = experiment: Post-emergence test, Sinapis; settings: post-emergence/greenhouse; 250 g of ai/ha; after three weeks
Experimental: as §1, with “Test plants” for “Seeds”, “a height of 5-15 cm” for “the test plants”, “are” for “are sown in normal soil. After about 24 hours, the soil is”, “(=like” for “(like”

Myzus persicae = experiment: Myzus test (leaf dip, cabbage); settings: 500 ppm active compound, cabbage leaves dipped
Experimental: [table] To produce a suitable preparation of active compound, 1 part by weight of active compound is mixed with the stated amounts of solvent and emulsifier, and the concentrate is diluted with emulsifier-containing water to the desired concentration. Cabbage leaves (Brassica oleracea) which are heavily infested by peach aphids (Myzus persicae) are treated by being dipped into the preparation of active compound of the desired concentration. After the desired period of time, the kill in % is determined. 100% means that all aphids have been killed; 0% means that none of the aphids have been killed.

Amaranthus [9] = experiment: Pre-emergence test, Amaranthus; settings: pre-emergence/greenhouse; 250 g of ai/ha; after three weeks
Experimental: as §1

Setaria [10] = experiment: Post-emergence test, Setaria; settings: post-emergence/greenhouse; 250 g of ai/ha; after three weeks
Experimental: as §1, with “Test plants” for “Seeds”, “a height of 5-15 cm” for “the test plants”, “are” for “are sown in normal soil. After about 24 hours, the soil is”, “(=like” for “(like”

Echinochloa [11] = experiment: Pre-emergence test, Echinochloa; settings: pre-emergence/greenhouse; 250 g of ai/ha; after three weeks
Experimental: as §1

Echinochloa [12] = experiment: Post-emergence test, Echinochloa; settings: post-emergence/greenhouse; 250 g of ai/ha; after three weeks
Experimental: as §1, with “Test plants” for “Seeds”, “a height of 5-15 cm” for “the test plants”, “are” for “are sown in normal soil. After about 24 hours, the soil is”, “(=like” for “(like”

Phaedon cochleariae = experiment: Phaedon larvae test; settings: 500 ppm active compound, cabbage leaves dipped
Experimental: [table] To produce a suitable preparation of active compound, 1 part by weight of active compound is mixed with the stated amounts of solvent and emulsifier, and the concentrate is diluted with emulsifier-containing water to the desired concentration. Cabbage leaves (Brassica oleracea) are treated by being dipped into the preparation of active compound of the desired concentration and are populated with larvae of the mustard beetle (Phaedon cochleariae) while leaves are still moist. After the desired period of time, the kill in % is determined. 100% means that all beetle larvae have been killed; 0% means that none of the beetle larvae have been killed.

Sugar beet [13] = experiment: Post-emergence test, Sugar beet; settings: post-emergence/greenhouse; 250 g of ai/ha; after three weeks; crop
Experimental: as §1, with “Test plants” for “Seeds”, “a height of 5-15 cm” for “the test plants”, “are” for “are sown in normal soil. After about 24 hours, the soil is”, “(=like” for “(like”

Meloidogyne incognita = experiment: Meloidogyne test (gall formation on lettuce roots); settings: 20 ppm active compound, nematicidal action by gall formation
Experimental: [table] To produce a suitable preparation of active compound, 1 part by weight of active compound is mixed with the stated amounts of solvent and emulsifier, and the concentrate is diluted with water to the desired concentration. Vessels are filled with sand, solution of active compound, Meloidogyne incognita egg/larvae suspension and lettuce seeds. The lettuce seeds germinate and the plants develop. On the roots, galls develop. After the desired period of time, the nematicidal action is determined in % by the formation of galls. 100% means that no galls have been found; 0% means that the number of galls on the treated plants corresponds to that of the untreated control.

Sugar beet [14] = experiment: Pre-emergence test, Sugar beet; settings: pre-emergence/greenhouse; 250 g of ai/ha; after three weeks; crop
Experimental: as §1

Compound | % damage, Alopecurus (Alopecurus [1]) | % damage, Avena fatua (Avena fatua [2]) | % damage, Alopecurus (Alopecurus [3]) | % damage, Setaria (Setaria [4]) | % damage, Sinapis (Sinapis [5]) | % damage, Amaranthus (Amaranthus [6]) | % damage, Avena fatua (Avena fatua [7]) | % damage, Sinapis (Sinapis [8]) | Kill rate in % after 6d (Myzus persicae) | % damage, Amaranthus (Amaranthus [9]) | % damage, Setaria (Setaria [10]) | % damage, Echinochloa (Echinochloa [11]) | % damage, Echinochloa (Echinochloa [12]) | Kill rate in % after 7d (Phaedon cochleariae) | % damage, Sugar beet (Sugar beet [13]) | Kill rate in % after 14d (Meloidogyne incognita) | % damage, Sugar beet (Sugar beet [14])
COC1CCC2(CC1)NC(=O)C(Cl)(c1c(C)cc(Br)cc1Cl)C2=O (centres unmarked) [Ex. I-1-a-10] | 100% | 90% | 90% | 100% | 90% | 80% | 90% | 80% | 99% | 80% | 100% | 100% | 100% | – | – | – | –
CCc1cc(Br)cc(C)c1C1(Cl)C(=O)NC2(CCC(OC)CC2)C1=O (centres unmarked) [Ex. I-1-a-26] | – | – | 100% | – | – | – | 100% | 80% | – | – | 100% | – | 100% | 100% | 0% | – | –
CCc1cc(Cl)cc(CC)c1C1(Cl)C(=O)NC2(CCC(OC)CC2)C1=O (centres unmarked) [Ex. I-1-a-43] | 95% | 100% | 90% | 100% | – | – | 100% | 70% | 90% | – | 100% | 100% | 100% | – | 0% | 95% | 0%
CCc1cc(Br)cc(Cl)c1C1(Cl)C(=O)NC2(CCC(OC)CC2)C1=O (centres unmarked) [Ex. I-1-a-44] | 100% | 100% | 95% | 100% | 80% | – | 100% | 70% | 98% | – | 100% | 100% | 100% | – | 0% | – | 0%
CCc1cc(Br)cc(C)c1C1(Cl)C(=O)NC2(CCCOC2)C1=O (centres unmarked) [Ex. I-1-b-12] | 95% | 100% | 90% | 100% | – | – | 100% | – | – | – | 100% | 100% | 100% | – | 0% | – | 0%
